Results from paper PMC12606464, “Investigating NFE2L1 activators for targeted protein aggregate clearance: a follow-up study” (RSC Medicinal Chemistry, 2025).

Test system: EGFP-HttQ74 aggregates in U2OS cells
Assay: Analysis of polyQ (EGFP-HttQ74) aggregation in U2OS cells
Format: cell-based
Conditions: U2OS EGFP-HttQ74, 5 μM, 24 h, with BOC-D-FMK
Procedure: Considering these earlier findings, we assessed the impact of the most promising compound, RUN-89, on protein aggregate formation in cells. U2OS cells were transfected with the EGFP-HttQ74 plasmid, a model for polyglutamine (polyQ) aggregation, and then treated with the caspase inhibitor BOC-D-FMK in combination with either 5 μM RUN compounds or a vehicle control for 24 hours prior to the microscopy analysis (Fig. 4). […] A decrease in aggregate size leads to an increase in their number, as the formation of large aggregates is prevented. Instead, multiple smaller aggregates are formed, which, according to our assumption, could be more easily degraded (Fig. 4B). […] Representative fluorescence microscopy images of U2OS cells expressing EGFP-HttQ74 treated with RUN-89 are shown in Fig. 4D, highlighting the difference between RUN-89-treated and vehicle-treated cells.
U2OS cells expressing EGFP-HttQ74 were treated for 24 hours with either the caspase inhibitor BOC-D-FMK, 5 μM RUN compounds, or DMSO (negative control). In total, cells from three independent experiments were analyzed (n = 3) and from every well 10 areas were screened. […] The volume value was measured in voxels. […] (D) Fluorescence microscopy images represent U2OS cells overexpressing EGFP-HttQ74 after treatment with RUN-89 and DMSO for 24 h. […]
instructions. […] Data were expressed as a fold change relative to the corresponding DMSO control. […]

COc1ccc(/C=C2\CC(NC(=O)C3CCCC3)C/C(=C\c3ccc(OC)c(OC)c3)C2=O)cc1OC (stereo not shown) [RUN-89]
Number of aggregates per cell: 4.545
